Activity calls are given as the source filed them.
Tests used:
[1] = target: T1, Oxysterols receptor LXR-beta (Homo sapiens, UniProt P55055); experiment: LXR agonists, Gal4 luciferase reporter, dose response, counter-screen for ssDAF-12 agonist project, cell-based, luminescence, HEK293, S. stercoralis campaign (AID 720737); type: functional; details: read-out: IC50 (the source's name)
T1 sequence (P55055 whole entry): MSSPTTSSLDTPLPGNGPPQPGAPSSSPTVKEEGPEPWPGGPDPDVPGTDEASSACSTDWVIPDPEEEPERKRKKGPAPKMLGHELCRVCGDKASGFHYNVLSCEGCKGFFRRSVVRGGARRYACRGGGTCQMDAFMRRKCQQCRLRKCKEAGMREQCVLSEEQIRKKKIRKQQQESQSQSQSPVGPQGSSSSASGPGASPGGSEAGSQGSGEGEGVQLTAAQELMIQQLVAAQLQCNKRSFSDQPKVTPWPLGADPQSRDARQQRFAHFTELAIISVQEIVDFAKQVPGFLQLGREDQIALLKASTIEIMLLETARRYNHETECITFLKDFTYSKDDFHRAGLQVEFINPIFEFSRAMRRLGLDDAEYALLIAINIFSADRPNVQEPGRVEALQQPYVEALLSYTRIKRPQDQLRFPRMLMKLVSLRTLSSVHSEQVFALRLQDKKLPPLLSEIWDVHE

[2] = Luminescence Cell-Based Dose Response HTS to Identify Activators of Luciferase Translation or Activity in H4 […] Cells. [Related pubchem assays: 1829 (Project Summary), 1814 (Primary HTS)]; type: functional
[3] = Luminescence-based cell-based high throughput dose response assay to identify activators of the DAF-12 from the parasite S. stercoralis (ssDAF-12).; type: functional
[4] = target: Bifunctional protein GlmU (Mycobacterium tuberculosis, UniProt P9WMN3); experiment: Inhibitors of Mycobacterial Glucosamine-1-phosphate acetyl transferase (GlmU). Secondary screen.; design: species or system Mycobacterium tuberculosis H37Rv
Cysteine protease ATG4B = target: T2, Cysteine protease ATG4B (Homo sapiens, UniProt Q9Y4P1); type: functional;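 further: Fluorescence-based dose-response confirmation assay measuring inhibition of ATG4B activity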
T2 sequence (Q9Y4P1 whole entry): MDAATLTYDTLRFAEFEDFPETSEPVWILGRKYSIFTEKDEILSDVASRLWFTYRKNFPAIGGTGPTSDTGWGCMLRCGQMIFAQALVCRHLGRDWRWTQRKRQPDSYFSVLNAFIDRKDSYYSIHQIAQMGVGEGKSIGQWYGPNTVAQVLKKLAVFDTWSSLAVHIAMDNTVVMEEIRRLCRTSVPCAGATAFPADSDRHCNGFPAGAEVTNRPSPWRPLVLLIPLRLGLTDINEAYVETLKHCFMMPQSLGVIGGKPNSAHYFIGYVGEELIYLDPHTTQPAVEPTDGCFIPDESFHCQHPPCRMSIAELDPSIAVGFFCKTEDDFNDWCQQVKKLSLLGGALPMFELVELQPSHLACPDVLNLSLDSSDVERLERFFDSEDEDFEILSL

Phospholipase A2 = Phospholipase A2 (Homo sapiens, UniProt P04054); type: functional;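 further: confirmatory dose-response counterscreen on phospholipase A2, testing hits that came from an ultra-high-throughput screen for ATG4B inhibitors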
[5] = cytotoxicity dependent on PAX8, dose response, cell-based, plate reader, dry powder (AID 743049); type: functional
[6] = PAX5 activity inhibitors, dose response, selectivity assay for PAX8 inhibitor project, cell-based, plate reader, dry powder samples (AID 743047); type: functional;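 further: HEK293 cells carrying a Pax5 driven CD19 promoter luciferase reporter; potency of inhibitors that lower reporter luminescence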
Paired box protein Pax-8 = Paired box protein Pax-8 (Homo sapiens, UniProt Q06710); experiment: inhibitors of PAX8-driven TPO luciferase reporter, dose response, RMG-I cells, cherry-pick (AID 687027); type: functional, cell-based;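 further: luciferase reporter driven by Pax8 target thyroperoxidase promoter measured by SteadyGlo luminescence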
[7] = cytotoxicity in OVCAR8 ovarian cancer cells, dose response, PAX8 project, cell-based, plate reader, dry powder samples (AID 743197); type: functional; details: OVCAR-8
[8] = IGROV1 ovarian cancer cell cytotoxicity, dose response, PAX8 inhibitor project, plate reader, dry powder samples (AID 743043); type: functional, cell-based; details: IGROV-1
[9] = PAX2 cell-based inhibition, dose response, selectivity assay for PAX8 inhibitor project, plate reader, dry powder samples (AID 743048); type: functional;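 further: HEK293 cells carrying a WT1 promoter luciferase reporter driven by expressed Pax2; potency is for inhibition of Pax2 driven reporter signal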
[10] = NIH:OVCAR-3 ovarian cancer cell cytotoxicity, dose response, PAX8 inhibitor project, plate reader, dry powder samples (AID 743044); type: functional, cell-based
[11] = cytotoxicity in COV434 cells, dose response, cytotoxicity control for PAX8 inhibitor project, cell-based, plate reader, dry powder, SA7 (AID 743145); type: functional
[12] = TB: CFU replicating Measured in Microorganism System Using Imaging - 7108-05_Inhibitor_Dose_DryPowder_Activity_Set2.; type: functional
[13] = P. falciparum Dd2 blood-stage growth inhibition, dose response, SYBR Green fluorescence, erythrocytes, dry powder, set 2 (AID 1159574); type: functional, cell-based
[14] = target: NAD-dependent protein deacylase sirtuin-5, mitochondrial (Homo sapiens, UniProt Q9NXA8); experiment: SIRT5 deacylase inhibitors, dose response, biochemical, fluorescence imaging, cherry-pick, set 6 (AID 720597)
[15] = SK-MEL-5 parental cell viability reduction, dose response, orthogonal assay for MITF inhibitor project, CellTiter-Glo luminescence, dry powder, set 8 (AID 651586); type: functional, cell-based
[16] = MITF Orthogonal Assay: SK-MEL-5 CTG Assay Measured in Cell-Based System Using Plate Reader - 2084-02_Inhibitor_Dose_DryPowder_Activity_Set7.; type: functional
[17] = TRPM1 promoter luciferase reporter signal decrease, dose response, MITF inhibitor project, cell-based, SK-MEL-5, dry powder, set 9 (AID 651588); type: functional
[18] = A375 melanoma cell viability loss, dose response, counter-screen for MITF modulator project, CellTiter-Glo luminescence, dry powder, set 9 (AID 651591); type: functional, cell-based; details: A-375
[19] = TRPM1 promoter luciferase reporter signal decrease, dose response, MITF inhibitor project, cell-based, SK-MEL-5, dry powder, set 8 (AID 624430); type: functional
[20] = MALME3 melanoma cell viability reduction, dose response, orthogonal assay for MITF inhibitor project, CellTiter-Glo luminescence, dry powder, set 5 (AID 651584); type: functional, cell-based; details: MALME-3
[21] = MITF: Counter assay: A375 proliferation Measured in Cell-Based System Using Plate Reader - 2084-03_Inhibitor_Dose_DryPowder_Activity_Set8.; type: functional; details: A-375
[22] = MITF Orthogonal Assay: MALME3 CTG Assay Measured in Cell-Based System Using Plate Reader - 2084-04_Inhibitor_Dose_DryPowder_Activity_Set6.; type: functional; details: MALME-3

Chain of NAD-dependent protein deacylase sirtuin-5, mitochondrial (Q9NXA8 whole entry): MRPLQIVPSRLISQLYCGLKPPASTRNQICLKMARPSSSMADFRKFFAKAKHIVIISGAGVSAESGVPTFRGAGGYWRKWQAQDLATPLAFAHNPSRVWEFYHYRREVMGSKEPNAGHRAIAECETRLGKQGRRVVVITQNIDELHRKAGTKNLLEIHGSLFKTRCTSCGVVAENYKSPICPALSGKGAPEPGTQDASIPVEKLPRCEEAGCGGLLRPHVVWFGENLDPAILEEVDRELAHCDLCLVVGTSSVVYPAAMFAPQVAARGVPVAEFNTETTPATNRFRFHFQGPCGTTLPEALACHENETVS
Chain of Phospholipase A2 (P04054 whole entry): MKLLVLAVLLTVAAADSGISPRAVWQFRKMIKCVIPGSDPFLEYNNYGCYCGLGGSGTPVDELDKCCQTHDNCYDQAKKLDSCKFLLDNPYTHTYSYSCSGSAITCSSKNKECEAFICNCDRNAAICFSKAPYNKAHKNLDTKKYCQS
Chain of Bifunctional protein GlmU (P9WMN3 whole entry): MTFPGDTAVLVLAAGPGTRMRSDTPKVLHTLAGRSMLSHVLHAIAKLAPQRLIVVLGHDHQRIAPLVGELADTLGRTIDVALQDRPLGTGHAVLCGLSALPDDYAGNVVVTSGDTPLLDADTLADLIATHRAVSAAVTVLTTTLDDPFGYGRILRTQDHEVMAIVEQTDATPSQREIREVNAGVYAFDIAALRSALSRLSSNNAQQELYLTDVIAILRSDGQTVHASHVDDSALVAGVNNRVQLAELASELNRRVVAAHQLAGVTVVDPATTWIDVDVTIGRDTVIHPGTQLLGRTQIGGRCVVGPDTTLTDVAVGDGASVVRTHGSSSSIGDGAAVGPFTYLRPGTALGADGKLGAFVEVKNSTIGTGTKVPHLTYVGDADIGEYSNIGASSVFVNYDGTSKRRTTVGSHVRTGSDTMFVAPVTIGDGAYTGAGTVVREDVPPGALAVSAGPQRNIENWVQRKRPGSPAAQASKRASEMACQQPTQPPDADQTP
Chain of Paired box protein Pax-8 (Q06710 whole entry): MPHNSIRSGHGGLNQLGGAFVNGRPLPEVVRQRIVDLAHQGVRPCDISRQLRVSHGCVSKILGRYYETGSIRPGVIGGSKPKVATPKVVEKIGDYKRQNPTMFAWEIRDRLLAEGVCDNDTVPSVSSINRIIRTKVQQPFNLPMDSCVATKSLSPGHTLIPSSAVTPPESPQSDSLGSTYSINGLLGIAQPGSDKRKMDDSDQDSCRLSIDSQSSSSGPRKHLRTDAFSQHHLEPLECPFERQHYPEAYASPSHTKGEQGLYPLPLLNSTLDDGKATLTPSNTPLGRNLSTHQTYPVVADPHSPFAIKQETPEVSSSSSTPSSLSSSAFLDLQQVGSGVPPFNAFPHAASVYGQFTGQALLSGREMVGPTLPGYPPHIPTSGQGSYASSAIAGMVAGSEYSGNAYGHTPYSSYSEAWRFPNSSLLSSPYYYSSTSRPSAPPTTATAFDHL

Structure (SMILES): Cc1c(C(=O)Nc2ccccn2)oc2ccccc12
- EC50 [1]: > 67.5 µM (inactive)
- EC50 [2]: 0.901 µM (active)
- IC50 [3]: > 67.5 µM (inactive)

Structure (SMILES): C=CC#CC[N+]1(CC#Cc2ccccc2)CCOCC1
- IC50 [4]: 124 µM (active)
- IC50 (Cysteine protease ATG4B): 5.56 µM (active)
- IC50 (Phospholipase A2): 11.8 µM (active)

Structure (SMILES): O=C(C[C@H]1CC[C@H]2[C@@H](COC[C@@H](O)CN2S(=O)(=O)c2cccc(Cl)c2)O1)Nc1ccc(-c2ccccc2)cc1
- AC50 [5]: 20.3 µM (active)
- AC50 [6]: 3.85 µM (active)
- AC50 (Paired box protein Pax-8): 8.28 µM (active)
- AC50 [7]: 27.7 µM (active)
- AC50 [8]: 31.2 µM (active)
- AC50 [9]: 8.55 µM (active)
- AC50 [10]: 43 µM (active)
- AC50 [11]: 37.9 µM (active)

Structure (SMILES): Cn1c(NC(=O)c2ccccc2)nc2ncccc21
- AbsAC90 [12]: 724.55 µM

Structure (SMILES): COc1ccc(S(=O)(=O)N(C)C[C@H]2OCc3ccccc3-c3c(n(C)c4ccccc34)C(=O)N([C@@H](C)CO)C[C@@H]2C)cc1
- AC50 [13]: 1.47 µM (active)

Structure (SMILES): CC(C)CC#Cc1ccc2c(c1)O[C@@H](CN(C)S(=O)(=O)c1cccc(F)c1)[C@H](C)CN([C@H](C)CO)S2(=O)=O
- AC50 [14]: 26.3 µM (active)

Structure (SMILES): O=C1C(Nc2ccc(Cl)cc2)=C(N2CCCC2)C(=O)c2ccccc21
- AC50 [15]: > 70 µM (inactive)
- AC50 [16]: 1.77 µM (active)
- AC50 [17]: 31.6 µM (active)
- AC50 [18]: 50.9 µM (active)
- AC50 [19]: 3.48 µM (active)
- AC50 [20]: 39.2 µM (active)
- AC50 [21]: 41.5 µM (active)
- AC50 [22]: 39.2 µM (active)

Reference: ChEMBL document CHEMBL1201862, “PubChem BioAssay data set” (2004)
